Results as given in patent publication US8716242B2, “β-hairpin peptidomimetics” (priority 2009, dated 2014).
Numbered stars: 1 amine (or outer) side, 2 acyl side, 3 side chain; on linkers, the order of the positions; unused ones are H or OH. Bridge positions count the residues as written; N and C are the ends. Square brackets hold non-standard residues; d marks the D form. Side chains are listed from the residue outwards. Peptide text beside a SMILES is read from it. * marks the point of attachment. γGlu = O=C(O)[C@H](CCC(=O)[*:2])N[*:1]; Palmitoyl = CCCCCCCCCCCCCCCC(=O)*; Myristoyl = CCCCCCCCCCCCCC(=O)*; Dab = NCC[C@H](N)C(=O)O

Columns and labels:
in vivo = assay: in vivo; set-up: species or system male CD-1 mice; conditions: for bioavailability / AUC(0-inf) / Cmax / Tmax / half-life / level at 0.083 h / level at 0.25 h / level at 0.5 h / level at 1 h / level at 2 h / level at 4 h / level at 8 h / level at 12 h / level at 24 h: male, CD-1, mouse; for AUC0-∞ dcor. / Cmax dcor.: mouse
Procedure: 2.7. Pharmacokinetic Study (PK)
Pharmacokinetic study after intravenous (i.v.) and subcutaneous (s.c.) administration was performed for the compounds of Ex. 17, Ex. 20, Ex. 25, Ex. 26, Ex. 28, and Ex. 29. […] The compounds of Ex. 17, Ex. 25, Ex. 26, Ex. 28, and Ex. 29 were administered i.v. and s.c. as a cassette whereas for the compound of Ex. 20a single i.v. and s.c. administration was accomplished.
30 grams (±20%) male CD-1 mice obtained from Janvier, France, were used in the study testing the cassette compounds. The vehicle, phosphate buffered saline containing 5% DMSO, was added to give a final concentration of 0.5 mg/mL of the compounds (i.v. route and s.c. route). The volume was 2 mL/kg i.v. and 10 mL/kg s.c. and the cassette compounds were injected to give a final intravenous dose of 1 mg/kg and an subcutaneous dose of 5 mg/kg. Approximately 500 μL of blood were removed from the opened heart at predetermined time intervals (5, 15, 30 min and 1, 2, 4, 8 and 12 hours for the i.v. study and 5, 15, 30 min and 1, 2, 4, 8, 12 and 24 hours for the s.c. study) and added to heparinized tubes. Plasma was removed from pelleted cells upon centrifugation and frozen at −80° C. prior to HPLC-MS analysis. For the compound of Ex. 20 30 grams (±20%) male CD-1 mice obtained from Charles River Laboratories Deutschland GmbH were used. The vehicle, phosphate buffered saline, was added to give a final concentration of 0.2 mg/mL of the compound (i.v. route) and 1 mg/mL (s.c. route). The volume was 5 mL/kg i.v. and s.c. and the compound was injected to give a final intravenous dose of 1 mg/kg and an subcutaneous dose of 5 mg/kg. Approximately 300-400 μL of blood was removed under light isoflurane anesthesia by cardiac puncture at predetermined time intervals (5, 15, 30 min and 1, 2, 3, 4, 6, 12 hours for the i.v. study and 15, min and 1, 2, 4, 6, 8, 12 and 24 hours for the s.c. study) and added to heparinized tubes. Plasma was removed from pelleted cells upon centrifugation and frozen at −80° C. prior to HPLC-MS analysis.
Preparation of the Plasma Calibration Samples
“Blank” mouse plasma from untreated animals was used. Aliquots of plasma of 0.2 mL each were spiked with 50 ng of propranolol (Internal Standard, IS), (sample preparation by solid phase extraction on OASIS® HLB cartridges [Waters]) and with known amounts of Ex. 20 in order to obtain 9 plasma calibration samples in the range 10-5000 nM. The OASIS® HLB cartridges were conditioned with 1 mL of methanol and then with 1 mL of 1% NH3 in water. Samples were then diluted with 700 μL of 1% NH3 in water and loaded. The plate was washed with 1 mL of methanol/1% NH3 in water 5/95 (v/v). Elution was performed using 1 mL of 0.1% TFA in methanol.
The plate containing eluates was introduced into the concentrator system and taken to dryness. The residues were dissolved in 100 μL of formic acid 0.1%/acetonitrile, 95/5 (v/v) and analysed in the HPLC/MS on a reverse phase analytical column (Jupiter C18, 50×2.0 mm, 5 μm, Phenomenex), using gradient elution (mobile phases A: 0.1% formic acid in water, B: acetonitrile; from 5% B to 100% B in 2 min.).
Preparation of Plasma Samples
Samples coming from animal treatments were pooled in order to obtain an appropriate volume for the extraction. If the total volume obtained was less than 0.2 mL the appropriate amount of “blank” mouse plasma was added in order to keep the matrix identical to the calibration curve. Samples were than spiked with IS and processed as described for the calibration curve.
Pharmacokinetic Evaluation
In order to perform PK analysis pooled plasma data (n=3 mice) was used. PK parameters were calculated by WinNonLin™ software version 5.2.1 (Pharsight—A Certara™ Company, Mountain View, Calif. 94041 USA) using non-compartmental analysis with a linear up/log down trapezoidal calculation method. For the terminal elimination phase at least 3 time points and a correlation coefficient greater than 0.85 was used. […]

human CXCR4 = target: T1, human CXCR4 (Homo sapiens, UniProt P61073); assay: Ca2+-assay: CXCR4-antagonizing activity (SDF-1 induced calcium mobilization); assay type: cell-based; conditions: mouse pre-B cell line 300-19 transfected with human CXCR4; SDF-1 induced Ca2+ mobilization; read-out: IC50% [nM] ± SD, CXCR4 receptor
T1 construct: expressed in transfected cells; host or cells: mouse pre-B cell line 300-19
How it was run: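 Mouse pre-B 300-19 cells stably expressing human CXCR4, loaded with Calcium 4 dye in HBSS/20 mM HEPES pH 7.4/0.1% BSA for 1 h at RT. Peptides added before SDF-1; fluorescence (ex 485/em 525 nm) followed for 90 s. IC50 from four-parameter logistic fit of % maximal SDF-1 response.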

T1 sequence (P61073 whole entry): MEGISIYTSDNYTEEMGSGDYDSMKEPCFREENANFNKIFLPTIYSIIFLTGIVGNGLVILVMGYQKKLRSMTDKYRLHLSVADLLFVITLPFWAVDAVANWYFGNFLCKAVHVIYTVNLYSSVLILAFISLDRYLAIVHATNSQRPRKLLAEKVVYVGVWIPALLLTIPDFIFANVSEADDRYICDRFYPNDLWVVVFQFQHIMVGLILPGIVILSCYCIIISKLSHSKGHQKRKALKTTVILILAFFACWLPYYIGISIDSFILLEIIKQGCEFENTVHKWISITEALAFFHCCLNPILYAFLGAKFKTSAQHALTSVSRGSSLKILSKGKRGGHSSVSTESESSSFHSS

Row | Structure (SMILES) | bioavailability (in vivo) [%] | AUC(0-inf) (in vivo; iv, 1 mg/kg) [ng·h/mL] | Cmax (in vivo; iv, 1 mg/kg) [ng/mL] | Tmax (in vivo; iv, 1 mg/kg) [h] | half-life (in vivo; iv, 1 mg/kg) [h] | level at 0.083 h (in vivo; iv, 1 mg/kg) [ng/mL] | level at 0.25 h (in vivo; iv, 1 mg/kg) [ng/mL] | level at 0.5 h (in vivo; iv, 1 mg/kg) [ng/mL] | level at 1 h (in vivo; iv, 1 mg/kg) [ng/mL] | level at 2 h (in vivo; iv, 1 mg/kg) [ng/mL] | level at 4 h (in vivo; iv, 1 mg/kg) [ng/mL] | level at 8 h (in vivo; iv, 1 mg/kg) [ng/mL] | level at 12 h (in vivo; iv, 1 mg/kg) [ng/mL] | AUC(0-inf) (in vivo; sc, 5 mg/kg) [ng·h/mL] | Cmax (in vivo; sc, 5 mg/kg) [ng/mL] | Tmax (in vivo; sc, 5 mg/kg) [h] | half-life (in vivo; sc, 5 mg/kg) [h] | level at 0.25 h (in vivo; sc, 5 mg/kg) [ng/mL] | level at 0.5 h (in vivo; sc, 5 mg/kg) [ng/mL] | level at 1 h (in vivo; sc, 5 mg/kg) [ng/mL] | also measured
1 | CCCCCCCCCCCCCC(=O)N[C@@H](CCC(=O)NCCCC[C@@H]1NC(=O)[C@H](Cc2ccc(O)cc2)NC(=O)[C@@H]2CSSC[C@H](NC(=O)[C@H](Cc3ccc(O)cc3)NC(=O)[C@H](Cc3c[nH]cn3)NC(=O)[C@H](Cc3ccc(O)cc3)NC(=O)[C@@H]3CCCN3C(=O)[C@H]3CCCN3C(=O)[C@H](CCCCN)NC1=O)C(=O)N[C@@H](CO)C(=O)N[C@@H](C)C(=O)N1CCC[C@@H]1C(=O)N[C@@H](CCN)C(=O)N[C@@H](CCCNC(=N)N)C(=O)N[C@@H](Cc1ccc(O)cc1)C(=O)N2)C(=O)O [Ex. 28] (cyclo(YHYCSA[dP][Dab]RYCYK([γGlu-Myristoyl])K[dP]P); disulfide 4-11) | 150 | 3430 | 2820 | 0.1 | 3.2 | 2820 | 2120 | 2030 | 1670 | 114 | 148 | 34 | 17 | 25700 | 1900 | 8 | 4.3 | 16 | 73 | 232 | level at 2 h (in vivo; sc, 5 mg/kg): 1520 ng/mL; level at 4 h (in vivo; sc, 5 mg/kg): 1270 ng/mL; level at 8 h (in vivo; sc, 5 mg/kg): 1900 ng/mL; level at 12 h (in vivo; sc, 5 mg/kg): 1610 ng/mL; level at 24 h (in vivo; sc, 5 mg/kg): 164 ng/mL; AUC0-∞ dcor. (in vivo; iv, 1 mg/kg): 3430.8 kg·ng·h/mg/mL; Cmax dcor. (in vivo; iv, 1 mg/kg): 2817.0 kg·ng/mg/mL; AUC0-∞ dcor. (in vivo; sc, 5 mg/kg): 5137.4 kg·ng·h/mg/mL; Cmax dcor. (in vivo; sc, 5 mg/kg): 380.0 kg·ng/mg/mL; IC50 (human CXCR4): 2.1 ± 0.1 nM
2 | CCCCCCCCCCCCCCCC(=O)N[C@@H](CCC(=O)NCCCC[C@@H]1NC(=O)[C@H](Cc2ccc(O)cc2)NC(=O)[C@@H]2CSSC[C@H](NC(=O)[C@H](Cc3ccc(O)cc3)NC(=O)[C@H](Cc3c[nH]cn3)NC(=O)[C@H](Cc3ccc(O)cc3)NC(=O)[C@@H]3CCCN3C(=O)[C@H]3CCCN3C(=O)[C@H](CCCCN)NC1=O)C(=O)N[C@@H](CO)C(=O)N[C@@H](C)C(=O)N1CCC[C@@H]1C(=O)N[C@@H](CCN)C(=O)N[C@@H](CCCNC(=N)N)C(=O)N[C@@H](Cc1ccc(O)cc1)C(=O)N2)C(=O)O [Ex. 29] (cyclo(YHYCSA[dP][Dab]RYCYK([γGlu-Palmitoyl])K[dP]P); disulfide 4-11) | 151 | 2940 | 2320 | 0.1 | 3.6 | 2320 | 1820 | 1730 | 1500 | 87 | 114 | 35 | 16 | 22200 | 1600 | 8 | 4.7 | 9 | 41 | 137 | level at 2 h (in vivo; sc, 5 mg/kg): 1050 ng/mL; level at 4 h (in vivo; sc, 5 mg/kg): 958 ng/mL; level at 8 h (in vivo; sc, 5 mg/kg): 1600 ng/mL; level at 12 h (in vivo; sc, 5 mg/kg): 1430 ng/mL; level at 24 h (in vivo; sc, 5 mg/kg): 175 ng/mL; AUC0-∞ dcor. (in vivo; iv, 1 mg/kg): 2945.0 kg·ng·h/mg/mL; Cmax dcor. (in vivo; iv, 1 mg/kg): 2317.0 kg·ng/mg/mL; AUC0-∞ dcor. (in vivo; sc, 5 mg/kg): 4436.2 kg·ng·h/mg/mL; Cmax dcor. (in vivo; sc, 5 mg/kg): 320.6 kg·ng/mg/mL; IC50 (human CXCR4): 1.9 ± 0.8 nM
